Results as given in PubChem BioAssay AID2060510 (Molecular Pharmacology Branch, DTP, NCI, 2025).
pIC50: −log10 of the molar value.

Tested on: 439559-082-T-J2-PDC spheroids viability
Experiment: Anticancer human tumor 439559-082-T-J2-PDC patient-derived colon adenocarcinoma cell line growth inhibition [GQUAD]
Details: for pIC50: curve of first compound; for viability, T/C: stronger effect = lower value
Outline: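 Viability of tumor cells grown as complex spheroids with endothelial and stromal cells, exposed to drug combinations. Top concentration at or near clinical Cmax (else 10 microM), diluted in half-log increments.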

[1] = second compound 0.0316 µM, first compound 0.0316 µM
[2] = second compound 0.0316 µM, first compound 0.316 µM
[3] = second compound 0.1 µM, first compound 0.0316 µM
[4] = second compound 0.1 µM, first compound 0.316 µM
[5] = second compound 0.316 µM, first compound 0.0316 µM
[6] = second compound 0.316 µM, first compound 0.316 µM
[7] = second compound 1 µM, first compound 0.0316 µM
[8] = second compound 1 µM, first compound 0.316 µM
[9] = second compound 3.16 µM, first compound 0.0316 µM
[10] = second compound 3.16 µM, first compound 0.316 µM
[11] = second compound 10 µM, first compound 0.0316 µM
[12] = second compound 10 µM, first compound 0.316 µM
[13] = second compound 0.0316 µM, first compound 0.1 µM
[14] = second compound 0.0316 µM, first compound 1 µM
[15] = second compound 0.0316 µM, first compound 3.16 µM
[16] = second compound 0.0316 µM, first compound 10 µM
[17] = second compound 0.1 µM, first compound 0.1 µM
[18] = second compound 0.1 µM, first compound 1 µM
[19] = second compound 0.1 µM, first compound 3.16 µM
[20] = second compound 0.1 µM, first compound 10 µM
[21] = second compound 0.316 µM, first compound 0.1 µM
[22] = second compound 0.316 µM, first compound 1 µM
[23] = second compound 0.316 µM, first compound 3.16 µM
[24] = second compound 0.316 µM, first compound 10 µM
[25] = second compound 1 µM, first compound 0.1 µM
[26] = second compound 1 µM, first compound 1 µM
[27] = second compound 1 µM, first compound 3.16 µM
[28] = second compound 1 µM, first compound 10 µM
[29] = second compound 3.16 µM, first compound 0.1 µM
[30] = second compound 3.16 µM, first compound 1 µM
[31] = second compound 3.16 µM, first compound 3.16 µM
[32] = second compound 3.16 µM, first compound 10 µM
[33] = second compound 10 µM, first compound 0.1 µM
[34] = second compound 10 µM, first compound 1 µM
[35] = second compound 10 µM, first compound 3.16 µM
[36] = second compound 10 µM, first compound 10 µM
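Also: spheroids exposed to the agents for 7 days before readout.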
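For viability, T/C in this document: percent of luminescence signal in DMSO vehicle wells taken as 100% viability.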

With `CCc1c2c(nc3ccc(O)cc13)-c1cc3c(c(=O)n1C2)COC(=O)[C@]3(O)CC` + CN(C)c1ccc(Nc2c3ccc(NC(=O)CCN4CCCC4)cc3nc3cc(NC(=O)CCN4CCCC4)ccc23)cc1 as the molecule, how does the pIC50 (second compound 0.0316 µM) read?
Its pIC50 is 6.79.

What about the pIC50 (second compound 0.1 µM) of the same molecule?
The pIC50 was 6.74.

And the pIC50 (second compound 0.316 µM)?
Its pIC50 is 6.68.

And the pIC50 (second compound 1 µM)?
The pIC50 was 6.75.

What about the pIC50 (second compound 3.16 µM) of the same molecule?
Its pIC50 is 6.71.

And the pIC50 (second compound 10 µM)?
Its pIC50 is 6.71.

And the viability, T/C (second compound 0.0316 µM, first compound 0.000999 µM)?
Its viability, T/C is 99.7%.

And the viability, T/C (second compound 0.0316 µM, first compound 0.00316 µM)?
Its viability, T/C is 88.5%.

And the viability, T/C (second compound 0.0316 µM, first compound 0.00999 µM)?
Its viability, T/C is 72.7%.

What about the viability, T/C [1] of the same molecule?
Its viability, T/C is 70.1%.

And the viability, T/C (second compound 0.0316 µM, first compound 0.0999 µM)?
Its viability, T/C is 52.5%.

What about the viability, T/C [2] of the same molecule?
Its viability, T/C is 43.8%.

And the viability, T/C (second compound 0.1 µM, first compound 0.000999 µM)?
The viability, T/C was 110%.

What about the viability, T/C (second compound 0.1 µM, first compound 0.00316 µM) of the same molecule?
The viability, T/C was 91%.

And the viability, T/C (second compound 0.1 µM, first compound 0.00999 µM)?
The viability, T/C was 82.1%.

And the viability, T/C [3]?
The viability, T/C was 72.6%.

What about the viability, T/C (second compound 0.1 µM, first compound 0.0999 µM) of the same molecule?
Its viability, T/C is 56.6%.

What about the viability, T/C [4] of the same molecule?
Its viability, T/C is 42.9%.

What about the viability, T/C (second compound 0.316 µM, first compound 0.000999 µM) of the same molecule?
Its viability, T/C is 104%.

What about the viability, T/C (second compound 0.316 µM, first compound 0.00316 µM) of the same molecule?
Its viability, T/C is 93.6%.

And the viability, T/C (second compound 0.316 µM, first compound 0.00999 µM)?
The viability, T/C was 77.1%.

And the viability, T/C [5]?
The viability, T/C was 70.5%.

And the viability, T/C (second compound 0.316 µM, first compound 0.0999 µM)?
Its viability, T/C is 67.7%.

What about the viability, T/C [6] of the same molecule?
The viability, T/C was 40.3%.

What about the viability, T/C (second compound 1 µM, first compound 0.000999 µM) of the same molecule?
The viability, T/C was 93.3%.

And the viability, T/C (second compound 1 µM, first compound 0.00316 µM)?
The viability, T/C was 85.7%.

What about the viability, T/C (second compound 1 µM, first compound 0.00999 µM) of the same molecule?
The viability, T/C was 85.8%.

What about the viability, T/C [7] of the same molecule?
The viability, T/C was 69.3%.

And the viability, T/C (second compound 1 µM, first compound 0.0999 µM)?
The viability, T/C was 56.8%.

And the viability, T/C [8]?
The viability, T/C was 43.9%.

What about the viability, T/C (second compound 3.16 µM, first compound 0.000999 µM) of the same molecule?
The viability, T/C was 100%.

What about the viability, T/C (second compound 3.16 µM, first compound 0.00316 µM) of the same molecule?
The viability, T/C was 90%.

What about the viability, T/C (second compound 3.16 µM, first compound 0.00999 µM) of the same molecule?
The viability, T/C was 76.6%.

What about the viability, T/C [9] of the same molecule?
Its viability, T/C is 64.2%.

What about the viability, T/C (second compound 3.16 µM, first compound 0.0999 µM) of the same molecule?
The viability, T/C was 61.5%.

What about the viability, T/C [10] of the same molecule?
The viability, T/C was 43.2%.

What about the viability, T/C (second compound 10 µM, first compound 0.000999 µM) of the same molecule?
The viability, T/C was 106%.

What about the viability, T/C (second compound 10 µM, first compound 0.00316 µM) of the same molecule?
The viability, T/C was 79%.

And the viability, T/C (second compound 10 µM, first compound 0.00999 µM)?
Its viability, T/C is 80.8%.

And the viability, T/C [11]?
Its viability, T/C is 75.4%.

What about the viability, T/C (second compound 10 µM, first compound 0.0999 µM) of the same molecule?
Its viability, T/C is 59.6%.

And the viability, T/C [12]?
Its viability, T/C is 41.7%.

Which results are given for `COc1cc(C2c3cc4c(cc3C(OC3OC5COC(C)OC5C(O)C3O)C3COC(=O)C23)OCO4)cc(OC)c1O` (stereo unspecified) + CN(C)c1ccc(Nc2c3ccc(NC(=O)CCN4CCCC4)cc3nc3cc(NC(=O)CCN4CCCC4)ccc23)cc1?
pIC50 (second compound 0.0316 µM): < 5.00; pIC50 (second compound 0.1 µM): < 5.00; pIC50 (second compound 0.316 µM): < 5.00; pIC50 (second compound 1 µM): < 5.00; pIC50 (second compound 3.16 µM): < 5.00; pIC50 (second compound 10 µM): < 5.00; viability, T/C [1]: 102%; viability, T/C [13]: 93.9%; viability, T/C [2]: 103%; viability, T/C [14]: 85.6%; viability, T/C [15]: 87.1%; viability, T/C [16]: 63.8%; viability, T/C [3]: 96.4%; viability, T/C [17]: 91.8%; viability, T/C [4]: 98.4%; viability, T/C [18]: 94.7%; viability, T/C [19]: 85%; viability, T/C [20]: 61.9%; viability, T/C [5]: 104%; viability, T/C [21]: 104%; viability, T/C [6]: 89.6%; viability, T/C [22]: 89%; viability, T/C [23]: 78.6%; viability, T/C [24]: 59.9%; viability, T/C [7]: 104%; viability, T/C [25]: 94.2%; viability, T/C [8]: 89.6%; viability, T/C [26]: 90%; viability, T/C [27]: 76.5%; viability, T/C [28]: 57%; viability, T/C [9]: 98%; viability, T/C [29]: 87.1%; viability, T/C [10]: 104%; viability, T/C [30]: 92.5%; viability, T/C [31]: 92.4%; viability, T/C [32]: 63.3%; viability, T/C [11]: 98.5%; viability, T/C [33]: 93.3%; viability, T/C [12]: 94.9%; viability, T/C [34]: 91.3%; viability, T/C [35]: 75.9%; viability, T/C [36]: 54.5%

What does the source list for `CCCS(=O)(=O)Nc1ccc(F)c(C(=O)c2c[nH]c3ncc(-c4ccc(Cl)cc4)cc23)c1F` + CN(C)c1ccc(Nc2c3ccc(NC(=O)CCN4CCCC4)cc3nc3cc(NC(=O)CCN4CCCC4)ccc23)cc1?
pIC50 (second compound 0.0316 µM): < 5.00; pIC50 (second compound 0.1 µM): < 5.00; pIC50 (second compound 0.316 µM): 5.02; pIC50 (second compound 1 µM): < 5.00; pIC50 (second compound 3.16 µM): 5.04; pIC50 (second compound 10 µM): < 5.00; viability, T/C [1]: 118%; viability, T/C [13]: 93.8%; viability, T/C [2]: 100%; viability, T/C [14]: 92.4%; viability, T/C [15]: 116%; viability, T/C [16]: 59.5%; viability, T/C [3]: 90.5%; viability, T/C [17]: 101%; viability, T/C [4]: 96.7%; viability, T/C [18]: 87.9%; viability, T/C [19]: 103%; viability, T/C [20]: 50.1%; viability, T/C [5]: 98.4%; viability, T/C [21]: 102%; viability, T/C [6]: 94.1%; viability, T/C [22]: 102%; viability, T/C [23]: 113%; viability, T/C [24]: 48.1%; viability, T/C [7]: 91.9%; viability, T/C [25]: 108%; viability, T/C [8]: 103%; viability, T/C [26]: 108%; viability, T/C [27]: 107%; viability, T/C [28]: 54.2%; viability, T/C [9]: 96%; viability, T/C [29]: 101%; viability, T/C [10]: 108%; viability, T/C [30]: 101%; viability, T/C [31]: 112%; viability, T/C [32]: 45.5%; viability, T/C [11]: 90.9%; viability, T/C [33]: 103%; viability, T/C [12]: 99.8%; viability, T/C [34]: 105%; viability, T/C [35]: 108%; viability, T/C [36]: 50.5%
